Like-named read-outs stand apart in the source and are kept apart here.
What was measured:
MCF-7 (ER+) cells = experiment: Proliferative (estrogenic) activity on MCF-7 (ER+) cells; type: cell-based; conditions: 7 days; for proliferation of MCF-7 (ER+) cells: 1 μM, control 100%
Protocol: The next step was to determine the presence or absence of estrogenic activity. To do so, cell proliferative assays were carried out on MCF-7 cells. […] Phenols of the corresponding sulfamate library 3-EO and 4-EO are referred to as library 3′-EO and library 4′-EO, respectively.
This cell assay was carried out according to a procedure previously described to determine the estrogenic activity of enzyme inhibitors on the growth of estrogen-sensitive MCF-7 cells.^77 All chemicals tested were first dissolved in DMSO and subsequent dilutions were done in the proper cell culture media. The final concentration of DMSO in the culture medium was 0.1% or less. 3-(4,5-dimethylthiazol-2-yl)-5-(3-carboxymethoxyphenyl)-2-(4-sulfophenyl)-2-H-tetrazolium (MTS) was used as an indirect colorimetric measurement of cell proliferation according to the manufacturer's instructions (Promega, Madison, Wis.). At the end of the treatments, 20 μL of MTS solution was added to each well (100 μL) and the MCF-7 cells were incubated 4 h at 37° C. The absorbance at 490 nm was then measured with a Thermo max microplate reader (Molecular Devices, Sunnyvale, Calif.). The control (culture media+DMSO) is set to 100% of cell proliferation.

T-47D cells [1] = experiment: T-47D cell proliferation (estrogenicity / cytotoxicity), MTS; type: cell-based; conditions: for estrogenicity / cytotoxicity on T-47D cells / activity at 0.01 µM: 0.01 μM; for estrogenicity / cytotoxicity on T-47D cells: 0.1 μM and 1 μM; for activity at 0.01 µM / activity at 0.1 µM / activity at 1 µM: Homo sapiens, T47D, control cells set to 100%, mean±SD; for activity at 1 µM / Breast cancer cells T-47D (ER+) Agonist activity (%): 1 μM; for Breast cancer cells T-47D (ER+) Agonist activity (%): in % of control (100%; 0.1 nM of estradiol)
Protocol: The library of phenolic compounds described above was tested on estrogen-sensitive breast cancer T-47D cells.
In Table 1, cell proliferation of control cells is set to 100%. Results are expressed as mean±SD of one experiment in triplicate.
(§1) CellTitter 96® Aqueous One Solution Cell Proliferation Assay was used as an indirect colorimetric measurement of cell proliferation according to the manufacturer's instructions. Briefly, after the treatments, 20 μL of MTS solution was added to each well (100 μL) of the plates and incubated at 37° C. for 2 h (Saos-2) or 4 h (T-47D). The absorbance at 490 nm was then measured with a Thermo max microplate reader (Molecular Devices, Sunnyvale, Calif.). The control (culture media+DMSO) is set to 100% of cell proliferation.
(§2) The cells were plated in 96-well plates at a density of 3 000 cells/well and allowed to attach for 48 h. After this pre-incubation, the inhibitors and the reference compounds diluted in fresh culture media were added to the wells and replaced every 2 days for 7 days of treatment.

steroid sulfatase (STS) = target: T1, steroid sulfatase (STS) (Homo sapiens, UniProt P08842); experiment: Steroid sulfatase (STS) inhibition, [3H]-E1S to [3H]-E1, homogenate of transfected HEK-293 cells; type: biochemical; conditions: for inhibition of STS: homogenates of transfected HEK-293 cells
T1 construct: expressed in transfected cells; host or cells: HEK-293 cells stably transfected with STS (G418 selection), obtained from Dr. Van Luu-The; used as freeze-thaw homogenate
T1 sequence (P08842 22-583): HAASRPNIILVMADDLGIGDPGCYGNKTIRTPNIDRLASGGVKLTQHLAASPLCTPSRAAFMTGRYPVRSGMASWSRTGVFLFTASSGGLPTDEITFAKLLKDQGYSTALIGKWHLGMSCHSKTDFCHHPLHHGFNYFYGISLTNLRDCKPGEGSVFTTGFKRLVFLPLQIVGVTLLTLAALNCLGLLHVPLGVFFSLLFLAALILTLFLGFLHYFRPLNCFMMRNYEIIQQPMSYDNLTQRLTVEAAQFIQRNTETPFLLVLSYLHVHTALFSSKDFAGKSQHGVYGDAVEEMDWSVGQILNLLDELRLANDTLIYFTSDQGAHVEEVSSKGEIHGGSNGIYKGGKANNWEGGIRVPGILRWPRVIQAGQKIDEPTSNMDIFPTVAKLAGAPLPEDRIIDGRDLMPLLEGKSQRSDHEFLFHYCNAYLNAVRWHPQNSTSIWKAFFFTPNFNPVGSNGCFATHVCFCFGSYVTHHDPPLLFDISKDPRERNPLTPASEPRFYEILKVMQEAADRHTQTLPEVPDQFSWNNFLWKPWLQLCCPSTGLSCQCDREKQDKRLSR
Protocol: To test STS inhibition, we used homogenated HEK-293 cells overexpressing STS and evaluated the capacity of our compounds to inhibit the conversion of [^3H]-E1S into [^3H]-E1. […] This is outlined in FIG. 5.
An enzymatic assay previously described was used for the inhibition of the transformation of estrone sulfate (E1S) to estrone (E1) by STS.^72 Briefly, the transfected HEK-293 cells were homogenized by repeated (5 times) cycles of freezing (−80° C.) and thawing on ice (4° C.). The homogenates were then incubated for 2 h at 37° C. (shaking water bath) with or without inhibitors (0.01 μM-1 μM) in presence of [^3H]-E1S (9 nM), adjusted to 1 μM with E1S, in a Tris-acetate buffer (pH 7.4) containing 5 mM EDTA and 10% glycerol. After the incubation, 1 mL of xylene was added to each tube and the solutions were then centrifuged at 3000 rpm for 20 min to separate the organic ([^3H]-E1) and aqueous ([^3H]-E1S) phases. Once 500 μL of each phase was added to 10 mL of Biodegradable Counting Scintillant, the radioactivity of samples was recorded using a Wallac 1411 Liquid Scintillation Counter. The percentage of inhibition was determined by comparison with the control (buffer+homogenate+[^3H]-E1S) which was set to 0% of inhibition. IC50 value was obtained using GraphPad Prism 5 (GraphPad Software, La Jolla, Calif.).

[2] = tested on: alkaline phosphatase (ALP) activity in Saos-2 cells; experiment: Alkaline phosphatase (ALP) activity in Saos-2 cells; type: cell-based
Protocol: ALP is an enzyme that releases inorganic phosphate from different intracellular substrates such as pyrophosphate and pyridoxal 5′-phosphate.^63 The inorganic phosphate is used in the formation of hydroxyapatite crystals which are then inserted in the extracellular protein scaffold to form the solid part of bone tissue.
Saos-2 cells were treated similarly as reported in the cell proliferation assay. The cells were seeded at a density of 2 000 cells/well and were treated with the inhibitors and the reference compounds for 3 days. The alkaline phosphatase (ALP) activity was measured using Sensolyte® pNPP Alkaline Phosphatase Assay Kit *Colorimetric* (AnaSpec, Fremont, Calif.) following the manufacturer's protocol. Briefly, after the 3 days of treatment, the cells were washed twice with washing buffer (provided with the kit) and lysed with 0.2% Triton X-100. The cell lysates were centrifuged and the supernatants were used to determine the ALP activity. The supernatants were deposed in a 96-well plate and incubated 30 min with a p-nitrophenyl phosphate solution (provided with the kit). The absorbance at 405 nm was measured with a Thermo max microplate reader (Molecular Devices, Sunnyvale, Calif.). The control (culture media+DMSO) is set to 100% of alkaline phosphatase activity.

T-47D cells [3] = experiment: T-47D cell proliferation in presence of E2 (antiestrogenicity); type: cell-based; conditions: for inhibition at 1 µM: Homo sapiens, T47D, read-out: Breast cancer cells T-47D (ER+) Antagonist activity (%)
Protocol: as §1, §2

[4] = tested on: osteoblast-like Saos-2 cells; experiment: Saos-2 cell proliferation, MTS; type: cell-based; conditions: for Saos-2 cell proliferation, dose response: 1 nM to 1 μM; for Saos-2 cell proliferation, dose response / Saos-2 cell proliferation: 7 days; for Bone cells Saos-2 (ER+) SERM effect Proliferative activity (%): in percentage of control (100%; 0.1 nM of estradiol); for Saos-2 cell proliferation: control 100%
Excerpt: First, we wanted to evaluate their effect on cell proliferation. […] This is outlined in FIG. 8A. […] One of the main roles of osteoblasts in bone tissue is to construct a calcified extracellular matrix.^15 As such, bone formation is not principally due to osteoblasts proliferation but rather osteoblasts maturation into mature osteocytes. […] This is outlined in FIG. 8B.
as §1
Saos-2 cells were suspended in phenol-red free McCoy's 5A medium supplemented with 10% charcoal-stripped FBS, penicillin (100 IU/mL) and streptomycin (100 μg/mL). The cells were seeded in 96-well plates at a density of 3 000 cells/well and allowed to attach. After 24 h, the inhibitors and the reference compounds diluted in fresh culture media were added to the wells and replaced every 2 days for 7 days of treatment.

[5] = transformation of E1S into E1 in homogenate of HEK-293 cells transfected with STS, read-out: Steroid Sulfatase Inhibition IC50
[6] = homogenated HEK-293 cells overexpressing STS, [3H]-E1S to [3H]-E1, read-out: STS inhibition IC50

Compound: O=C(c1ccc(CN(Cc2ccccc2)Cc2ccco2)cc1)N1CCc2ccc(O)cc2C1 [3′-EO-11]
- stimulation of MCF-7 cell growth (MCF-7 (ER+) cells; 0.01 μM, 0.1 μM and 1 μM): did not stimulate

Compound: CN(C)CCCN(Cc1ccccc1)Cc1ccc(C(=O)N2CCc3ccc(O)cc3C2)cc1 [3′-EO-05]
- proliferation of MCF-7 (ER+) cells (MCF-7 (ER+) cells): 126%

Compound: O=C(c1ccc(CN(Cc2ccccn2)Cc2ccco2)cc1)N1CCc2ccc(O)cc2C1 [Compound 25, (4-{[(furan-2-ylmethyl)(pyridin-2-ylmethyl)amino]methyl}phenyl)(7-hydroxy-3,4-dihydroisoquinolin-2(1H)-yl)methanone]
- estrogenicity / cytotoxicity on T-47D cells (T-47D cells [1]): neither estrogenicity nor cytotoxicity
- activity at 0.01 µM (T-47D cells [1]): 104 ± 2.3%
- activity at 0.1 µM (T-47D cells [1]): 103 ± 2.5%
- activity at 1 µM (T-47D cells [1]): 104 ± 6.5%
- inhibition of STS (steroid sulfatase (STS)): no significant inhibition

Compound: CCN(Cc1ccc(Br)cc1)Cc1ccc(C(=O)N2CCc3ccc(O)cc3C2)cc1 [3′-EO-13]
- proliferation of MCF-7 (ER+) cells (MCF-7 (ER+) cells): 177%

Compound: O=C(c1ccc(CN(CCO)Cc2ccccc2)cc1)N1CCc2ccc(O)cc2C1 [3′-EO-02]
- proliferation of MCF-7 (ER+) cells (MCF-7 (ER+) cells): 135%

Compound: COc1ccc(CN(Cc2ccc(C(=O)N3CCc4ccc(O)cc4C3)cc2)Cc2ccccn2)cc1 [Compound 31, (7-hydroxy-3,4-dihydroisoquinolin-2(1H)-yl)(4-{[(4-methoxybenzyl)(pyridin-2-ylmethyl)amino]methyl}phenyl)methanone]
- estrogenicity / cytotoxicity on T-47D cells (T-47D cells [1]): neither estrogenicity nor cytotoxicity
- activity at 0.01 µM (T-47D cells [1]): 105.6 ± 0.6%
- activity at 0.1 µM (T-47D cells [1]): 105 ± 7.4%
- activity at 1 µM (T-47D cells [1]): 101 ± 7.9%
- inhibition of STS (steroid sulfatase (STS)): no significant inhibition

Compound: Cc1ccc(CN(Cc2ccc(C(=O)N3CCc4ccc(O)cc4C3)cc2)Cc2ccco2)s1 [Compound 29, [4-({(furan-2-ylmethyl)[(5-methylthiophen-2-yl)methyl]amino}methyl)phenyl](7-hydroxy-3,4-dihydroisoquinolin-2(1H)-yl)methanone]
- estrogenicity / cytotoxicity on T-47D cells (T-47D cells [1]): neither estrogenicity nor cytotoxicity
- Breast cancer cells T-47D (ER+) Agonist activity (%) (T-47D cells [1]): 0%
- activity at 0.01 µM (T-47D cells [1]): 97.1 ± 2.6%
- activity at 0.1 µM (T-47D cells [1]): 103 ± 1.8%
- activity at 1 µM (T-47D cells [1]): 96.8 ± 2.2%
- inhibition of STS (steroid sulfatase (STS)): no significant inhibition
- IC50 (steroid sulfatase (STS); [5]): > 1000 nM
- Bone cells Saos-2 (ER+) SERM effect Alkaline phosphatase activity (%) ([2]; 0.1 nM): 114%
- stimulation of ALP activity in presence of ICI-164,384 or MPP + PHTPP ([2]; 0.1 nM compound, antagonists 1 μM, 3 days): completely blocked the stimulation
- ALP activity in Saos-2 cells ([2]; 0.1 nM, 3 days, control 100%): 138%
- blockade of the stimulation induced by E2 in T-47D cells (T-47D cells [3]; 5 μM, E2 0.1 nM): approximately 84%
- inhibition at 1 µM (T-47D cells [3]): 46%
- Saos-2 cell proliferation, dose response [4]: apparent dose-dependent response
- Bone cells Saos-2 (ER+) SERM effect Proliferative activity (%) ([4]; 0.1 μM): 175%
- Saos-2 cell proliferation ([4]; 1 μM): ~150%
- Bone cells Saos-2 (ER+) SERM effect Proliferative activity (%) ([4]; 1 μM): 250%

Compound: COc1ccc(CN(Cc2ccc(C(=O)N3CCc4ccc(OS(N)(=O)=O)cc4C3)cc2)Cc2ccccn2)cc1 [Compound 34, 2-[(4-{[(4-methoxybenzyl)(pyridin-2-ylmethyl)amino]methyl}phenyl)carbonyl]-1,2,3,4-tetrahydroisoquinolin-7-yl sulfamate]
- IC50 (steroid sulfatase (STS); [6]): 3.9 nM

Compound: Cc1ccc(CN(Cc2ccc(C(=O)N3CCc4ccc(OS(N)(=O)=O)cc4C3)cc2)Cc2ccco2)s1 [Compound 33, 2-{[4-({(furan-2-ylmethyl)[(5-methylthiophen-2-yl)methyl]amino}methyl)phenyl]carbonyl}-1,2,3,4-tetrahydroisoquinolin-7-yl sulfamate]
- Breast cancer cells T-47D (ER+) Agonist activity (%) (T-47D cells [1]): 0%
- IC50 (steroid sulfatase (STS); [5]): 3.9 nM
- Bone cells Saos-2 (ER+) SERM effect Alkaline phosphatase activity (%) ([2]; 0.1 nM): 48%
- inhibition at 1 µM (T-47D cells [3]): 25%
- Saos-2 cell proliferation, dose response [4]: apparent dose-dependent response
- Bone cells Saos-2 (ER+) SERM effect Proliferative activity (%) ([4]; 0.1 μM): 33%
- Saos-2 cell proliferation ([4]; 1 μM): ~150%
- Bone cells Saos-2 (ER+) SERM effect Proliferative activity (%) ([4]; 1 μM): 211%

Compound: NS(=O)(=O)Oc1ccc2c(c1)CN(C(=O)c1ccc(CN(Cc3ccccn3)Cc3ccco3)cc1)CC2 [Compound 32, 2-[(4-{[(furan-2-ylmethyl)(pyridin-2-ylmethyl)amino]methyl}phenyl)carbonyl]-1,2,3,4-tetrahydroisoquinolin-7-yl sulfamate]
- IC50 (steroid sulfatase (STS); [6]): 16.6 nM

From patent US9708305B2, “Substituted 1,2,3,4-tetrahydroisoquinoline derivatives for the treatment of hormone-dependent diseases” (UNIVERSITÉ LAVAL, priority 2013, dated 2017)
